The source of these data is the supplement of paper PMC10307832.

Common to all, as to assay: relative viability (nuclei count vs DMSO), 5 days (fraction); higher = more cells survive
Compound in assay [1]: C1CC2=C(C1)C=C(C=C2)OC3=NC(=C4C(=N3)N(C=N4)CC5=CC=C(C=C5)C6=CC=CC=C6)N[C@@H](CC7=CC=CC=C7)CO [QS11] + Cc1nc(Nc2ncc(C(=O)Nc3c(C)cccc3Cl)s2)cc(N2CCN(CCO)CC2)n1 [Dasatinib] (partner 0.075 µM)
Summed up: (§1)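 One day after seeding in 1536-well plates, lung cancer cell lines were dosed by pin tool. Dosing was either single-drug or a fixed anchor-drug dose plus five library-drug doses (not always all listed) in √10 steps. After 5 days, nuclei were stained in one fix-and-stain step and counted on 4× images, and relative viability is the nuclei count of treated wells over that of vehicle wells, given as the median of duplicate plates.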

Compound in assay [2]: CC1=C(C=C(C=C1)NC(=O)C2=CC(=CC=C2)C(C)(C)C#N)NC3=CC4=C(C=C3)N=CN(C4=O)C [AZ628] + CC(=O)c1c(C)c2cnc(Nc3ccc(N4CCNCC4)cn3)nc2n(C2CCCC2)c1=O [Palbociclib] (partner 0.5 µM)
Summed up:
as §1

Compound in assay [3]: CC1=C(C=C(C=C1)NC(=O)C2=CC(=CC=C2)C(C)(C)C#N)NC3=CC4=C(C=C3)N=CN(C4=O)C [AZ628] + CC1(C)CCC(c2ccc(Cl)cc2)=C(CN2CCN(c3ccc(C(=O)NS(=O)(=O)c4ccc(N[C@H](CCN5CCOCC5)CSc5ccccc5)c(S(=O)(=O)C(F)(F)F)c4)cc3)CC2)C1 [Navitoclax] (partner 0.5 µM)
In a few lines: as §1

Compound in assay [4]: CC1=C(C=C(C=C1)NC(=O)C2=CC(=CC=C2)C(C)(C)C#N)NC3=CC4=C(C=C3)N=CN(C4=O)C [AZ628] + Nc1nc2[nH]cc(CCc3ccc(C(=O)N[C@@H](CCC(=O)O)C(=O)O)cc3)c2c(=O)[nH]1 [Pemetrexed] (partner 0.2 µM)
In a few lines: as §1

As for NCI-H838, the relative viability in assay [1] (first compound 0.08 µM) was 0.271; in assay [1] (first compound 0.253 µM), 0.312; in assay [1] (first compound 0.8 µM), 0.357; in assay [1] (first compound 2.53 µM), 0.27; in assay [1] (first compound 8 µM) it was 0.276; in assay [2] (first compound 0.08 µM) it was 0.214. For the same cell line, the relative viability in assay [2] (first compound 0.253 µM) stood at 0.205; in assay [2] (first compound 0.8 µM), 0.203; in assay [2] (first compound 2.53 µM), 0.224; in assay [2] (first compound 8 µM), 0.192; in assay [3] (first compound 0.08 µM), 1.15; in assay [3] (first compound 0.253 µM), 1.19. Besides, the relative viability in assay [3] (first compound 0.8 µM) was 1.1; in assay [3] (first compound 2.53 µM), 1.11; in assay [3] (first compound 8 µM), 0.991; in assay [4] (first compound 0.08 µM), 0.261; in assay [4] (first compound 0.253 µM), 0.23; in assay [4] (first compound 0.8 µM), 0.243. Also, the relative viability in assay [4] (first compound 2.53 µM) is 0.242; in assay [4] (first compound 8 µM), 0.225.

Turning to NCI-H1355, the relative viability in assay [1] (first compound 0.08 µM) is 0.702; in assay [1] (first compound 0.253 µM), 0.526; in assay [1] (first compound 0.8 µM) it was 0.673; in assay [1] (first compound 2.53 µM), 0.817; in assay [1] (first compound 8 µM) it was 0.794; in assay [2] (first compound 0.08 µM), 0.411. The relative viability in assay [2] (first compound 0.253 µM) came out at 0.397; in assay [2] (first compound 0.8 µM), 0.388; in assay [2] (first compound 2.53 µM), 0.373; in assay [2] (first compound 8 µM), 0.294; in assay [3] (first compound 0.08 µM) it was 0.99; in assay [3] (first compound 0.253 µM) it was 0.808. The relative viability is 0.931 in assay [3] (first compound 0.8 µM); 0.903 in assay [3] (first compound 2.53 µM); 0.746 in assay [3] (first compound 8 µM); 1.06 in assay [4] (first compound 0.08 µM); 1.02 in assay [4] (first compound 0.253 µM); 0.843 in assay [4] (first compound 0.8 µM). The relative viability amounted to 0.996 in assay [4] (first compound 2.53 µM) and 0.716 in assay [4] (first compound 8 µM).

For NCI-H1395, the relative viability in assay [1] (first compound 0.08 µM) stood at 0.387; in assay [1] (first compound 0.253 µM) it was 0.361; in assay [1] (first compound 0.8 µM) it was 0.382; in assay [1] (first compound 2.53 µM), 0.408; in assay [1] (first compound 8 µM), 0.419; in assay [2] (first compound 0.08 µM), 0.614. Further, the relative viability in assay [2] (first compound 0.253 µM) amounted to 0.612; in assay [2] (first compound 0.8 µM) it was 0.622; in assay [2] (first compound 2.53 µM), 0.609; in assay [2] (first compound 8 µM) it was 0.631; in assay [3] (first compound 0.08 µM) it was 1.2; in assay [3] (first compound 0.253 µM) it was 1.08. Further, the relative viability worked out at 1.1 in assay [3] (first compound 0.8 µM); 1.05 in assay [3] (first compound 2.53 µM); 1.22 in assay [3] (first compound 8 µM); 0.939 in assay [4] (first compound 0.08 µM); 0.789 in assay [4] (first compound 0.253 µM); 0.806 in assay [4] (first compound 0.8 µM). Moreover, the relative viability in assay [4] (first compound 2.53 µM) was 0.637; in assay [4] (first compound 8 µM) it was 0.712.

For the cell line NCI-H1437, the relative viability in assay [1] (first compound 0.08 µM) amounted to 0.397; in assay [1] (first compound 0.253 µM) it was 0.347; in assay [1] (first compound 0.8 µM) it was 0.404; in assay [1] (first compound 2.53 µM) it was 0.531; in assay [1] (first compound 8 µM) it was 0.391; in assay [2] (first compound 0.08 µM), 0.317. The relative viability in assay [2] (first compound 0.253 µM) amounted to 0.297; in assay [2] (first compound 0.8 µM), 0.274; in assay [2] (first compound 2.53 µM) it was 0.425; in assay [2] (first compound 8 µM) it was 0.379; in assay [3] (first compound 0.08 µM), 1.09; in assay [3] (first compound 0.253 µM), 1.09. Also, the relative viability in assay [3] (first compound 0.8 µM) turned out to be 1.19; in assay [3] (first compound 2.53 µM), 1.25; in assay [3] (first compound 8 µM), 1.07; in assay [4] (first compound 0.08 µM), 0.332; in assay [4] (first compound 0.253 µM) it was 0.293; in assay [4] (first compound 0.8 µM), 0.292. The relative viability turned out to be 0.296 in assay [4] (first compound 2.53 µM) and 0.294 in assay [4] (first compound 8 µM).
